The source of these data is patent US10780090B2, “Heteroaryl compounds useful as inhibitors of SUMO activating enzyme” (Millennium Pharmaceuticals, Inc., priority 2014, dated 2020).

Broadly, the inhibition is the percentage by which the read-out fell short of the control. One may read the IC50 as the concentration that inhibits the measured activity by half.

This test addresses recombinant human SAE enzyme (Homo sapiens (Human), UniProt Q9UBT2). The experiment in a line: SAE HTRF enzyme assay. The class given is biochemical. The conditions noted are these: for inhibition at 0.111 µM: read-out: Percent Inhibition; for IC50: class symbols A/B/C. In short, it runs like this: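 HTRF read-out using Eu-cryptate anti-Flag and allophycocyanin anti-GST antibodies, added with EDTA stop buffer and read after 2 h at 24 °C. The preceding reaction ran 105 min at 24 °C: 0.11 nM recombinant SAE, 0.5 μM ATP, Sumo-Flag, Ubc9-GST, pH 7.5. Values given as single-concentration inhibition or IC50.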
A general note: Time-resolved FRET reads energy transfer from a long-lived donor to a nearby acceptor.

recombinant human SAE enzyme, sequence (Q9UBT2 whole entry): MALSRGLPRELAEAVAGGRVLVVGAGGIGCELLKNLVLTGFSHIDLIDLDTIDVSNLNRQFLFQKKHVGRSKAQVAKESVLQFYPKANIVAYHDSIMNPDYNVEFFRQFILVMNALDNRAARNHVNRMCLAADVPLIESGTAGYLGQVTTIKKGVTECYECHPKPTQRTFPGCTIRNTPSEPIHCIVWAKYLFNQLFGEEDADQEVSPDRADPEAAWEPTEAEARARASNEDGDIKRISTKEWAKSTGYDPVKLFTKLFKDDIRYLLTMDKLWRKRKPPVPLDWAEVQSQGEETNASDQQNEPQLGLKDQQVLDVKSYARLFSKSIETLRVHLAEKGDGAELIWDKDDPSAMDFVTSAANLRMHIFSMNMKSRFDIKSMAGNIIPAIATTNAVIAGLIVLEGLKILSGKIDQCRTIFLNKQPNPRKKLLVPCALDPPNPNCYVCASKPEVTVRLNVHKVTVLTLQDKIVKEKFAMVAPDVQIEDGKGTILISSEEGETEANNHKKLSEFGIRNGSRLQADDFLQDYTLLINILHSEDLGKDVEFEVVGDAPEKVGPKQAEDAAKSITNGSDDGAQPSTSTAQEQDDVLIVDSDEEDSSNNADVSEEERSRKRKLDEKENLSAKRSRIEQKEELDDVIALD
recombinant human SAE enzyme, sequence (Q9UBE0 whole entry partner): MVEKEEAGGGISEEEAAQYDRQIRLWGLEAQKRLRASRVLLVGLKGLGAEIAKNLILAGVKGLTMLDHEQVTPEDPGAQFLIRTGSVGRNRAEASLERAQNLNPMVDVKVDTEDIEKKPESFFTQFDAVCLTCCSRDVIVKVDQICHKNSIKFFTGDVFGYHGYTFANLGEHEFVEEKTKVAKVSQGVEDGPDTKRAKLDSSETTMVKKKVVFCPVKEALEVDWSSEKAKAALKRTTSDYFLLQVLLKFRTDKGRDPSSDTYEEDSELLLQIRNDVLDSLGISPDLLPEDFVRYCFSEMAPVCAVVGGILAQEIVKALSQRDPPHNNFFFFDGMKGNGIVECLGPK

On to `C=C(c1cccc(Br)c1)c1csc(C(=O)c2cncnc2N[C@@H]2C[C@H](COS(N)(=O)=O)[C@@H](O)C2)c1` [I-164, [(1R,2S,4R)-4-{[5-({4-[1-(3-Bromophenyl)vinyl]-2-thienyl}carbonyl)pyrimidin-4-yl]amino)-2-hydroxycyclopentyl]methyl sulfamate], for which the IC50 lay in the range of 10 to 100 nM. Where the note is “Concentration 0.111 μM”, the inhibition at 0.111 µM came to 92%.
On to `NS(=O)(=O)OC[C@H]1C[C@@H](Nc2ncncc2C(=O)c2cc(Cc3ccccc3Cl)cs2)C[C@@H]1O` [I-165, {(1R,2S,4R)-4-[(5-{[4-(2-chlorobenzyl)-2-thienyl]carbonyl}pyrimidin-4-yl)amino]-2-hydroxycyclopentyl}methyl sulfamate], for which the IC50 was 10 to 100 nM. Also, the inhibition at 0.111 µM (Concentration 0.111 μM) is 91%.
Take `NS(=O)(=O)OC[C@H]1C[C@@H](Nc2ncncc2C(=O)c2cc(CN3CCc4ccccc4C3)cs2)C[C@@H]1O` [I-167, {(1R,2S,4R)-4-[(5-{[4-(3,4-dihydroisoquinolin-2(1H)-ylmethyl)-2-thienyl]carbonyl}pyrimidin-4-yl)amino]-2-hydroxycyclopentyl}methyl sulfamate]: the IC50 is 10 to 100 nM. Also, the inhibition at 0.111 µM (Concentration 0.111 μM) came to 89%.
The like results for `NS(=O)(=O)OC[C@H]1C[C@@H](Nc2ncncc2C(=O)c2cc(CN3CCc4sccc4C3)cs2)C[C@@H]1O` [I-168, {(1R,2S,4R)-4-[(5-{[4-(6,7-dihydrothieno[3,2-c]pyridin-5(4H)-ylmethyl)-2-thienyl]carbonyl}pyrimidin-4-yl)amino]-2-hydroxycyclopentyl}methyl sulfamate] were, in that order, 10 to 100 nM and 90%.
`Cc1ccn(Cc2csc(C(=O)c3cncnc3N[C@@H]3C[C@H](COS(N)(=O)=O)[C@@H](O)C3)c2)c1` [I-170, [(1R,2S,4R)-2-Hydroxy-4-({[5-({4-[(3-methyl-1H-pyrrol-1-yl)methyl]-2-thienyl}carbonyl)pyrimidin-4-yl]amino}cyclopentyl]methyl sulfamate]: the IC50 lay in the range of 10 to 100 nM. Further, the “Percent Inhibition” value (Concentration 0.111 μM) is 91.
As to `Cc1sc(C(=O)c2cncnc2N[C@@H]2C[C@H](COS(N)(=O)=O)[C@@H](O)C2)cc1CN1CCc2cccnc21` [I-171, {(1R,2S,4R)-4-[(5-{[4-(2,3-dihydro-1H-pyrrolo[2,3-b]pyridin-1-ylmethyl)-5-methyl-2-thienyl]carbonyl}pyrimidin-4-yl)amino]-2-hydroxycyclopentyl}methyl sulfamate], the IC50 lay in the range of 10 to 100 nM. The inhibition at 0.111 µM (Concentration 0.111 μM) was determined as 90%.
The like results for `NS(=O)(=O)OC[C@H]1C[C@@H](Nc2ncncc2C(=O)c2cc(CC3=CCSCC3)cs2)C[C@@H]1O` [I-173, {(1R,2S,4R)-4-[(5-{[4-(3,6-dihydro-2H-thiopyran-4-ylmethyl)-2-thienyl]carbonyl}pyrimidin-4-yl)amino]-2-hydroxycyclopentyl}methyl sulfamate] were, in that order, 10 to 100 nM and 86%.
For the molecule `NS(=O)(=O)OC[C@H]1C[C@@H](Nc2ncncc2C(=O)c2cc(Sc3cccc(Cl)c3)c(Cl)s2)C[C@@H]1O` [I-175, [(1R,2S,4R)-4-{[5-({5-chloro-4-[(3-chlorophenyl)sulfanyl]-2-thienyl}carbonyl)pyrimidin-4-yl]amino}-2-hydroxycyclopentyl]methyl sulfamate], the IC50 lay in the range of 10 to 100 nM. Also, the inhibition at 0.111 µM (Concentration 0.111 μM) is 90%.
As for `NS(=O)(=O)OC[C@H]1C[C@@H](Nc2ncncc2C(=O)c2cc(COc3ccccc3OC(F)(F)F)cs2)C[C@@H]1O` [I-176, [(1R,2S,4R)-2-hydroxy-4-({5-[(4-{[2-(trifluoromethoxy)phenoxy]methyl}-2-thienyl)carbonyl]pyrimidin-4-yl}amino)cyclopentyl]methyl sulfamate], the IC50 was in the range of 10 to 100 nM. Besides, the inhibition at 0.111 µM (Concentration 0.111 μM) was 87%.
`NS(=O)(=O)OC[C@H]1C[C@@H](Nc2ncncc2C(=O)c2cc(CSc3ccccc3)cs2)C[C@@H]1O` [I-177, [(1R,2S,4R)-2-hydroxy-4-{[5-({4-[(phenylsulfanyl)methyl]-2-thienyl}carbonyl)pyrimidin-4-yl]amino}cyclopentyl]methyl sulfamate]: the IC50 was in the range of 10 to 100 nM. Further, the inhibition at 0.111 µM (Concentration 0.111 μM) turned out to be 85%.
As to `NS(=O)(=O)OC[C@H]1C[C@@H](Nc2ncncc2C(=O)c2cc(CCc3ccc(Cl)cc3)cs2)C[C@@H]1O` [I-178, [(1R,2S,4R)-4-{[5-({4-[2-(4-chlorophenyl)ethyl]-2-thienyl}carbonyl)pyrimidin-4-yl]amino}-2-hydroxycyclopentyl]methyl sulfamate], the IC50 lay in the range of 10 to 100 nM. Also, for the setting “Concentration 0.111 μM”, the inhibition at 0.111 µM turned out to be 87%.
For `N#Cc1sc(C(=O)c2cncnc2N[C@@H]2C[C@H](COS(N)(=O)=O)[C@@H](O)C2)cc1Cc1cccc(Cl)c1` [I-179, {(1R,2S,4R)-4-[(5-{[4-(3-chlorobenzyl)-5-cyano-2-thienyl]carbonyl}pyrimidin-4-yl)amino]-2-hydroxycyclopentyl}methyl sulfamate], the IC50 lay within 10 to 100 nM. Besides, the inhibition at 0.111 µM (Concentration 0.111 μM) was determined as 86%.
`NS(=O)(=O)OC[C@H]1C[C@@H](Nc2ncncc2C(=O)c2cc(COc3cccc(Cl)c3Cl)cs2)C[C@@H]1O` [I-180, [(1R,2S,4R)-4-{[5-({4-[(2,3-dichlorophenoxy)methyl]-2-thienyl}carbonyl)pyrimidin-4-yl]amino}-2-hydroxycyclopentyl]methyl sulfamate]: the IC50 is 10 to 100 nM. Further, for the setting “Concentration 0.111 μM”, the inhibition at 0.111 µM turned out to be 84%.
Turning to `Cc1sc(C(=O)c2cncnc2N[C@@H]2C[C@H](COS(N)(=O)=O)[C@@H](O)C2)cc1S(=O)(=O)c1cccc(Cl)c1` [I-181, [(1R,2S,4R)-4-{[5-({4-[(3-chlorophenyl)sulfonyl]-5-methyl-2-thienyl}carbonyl)pyrimidin-4-yl]amino}-2-hydroxycyclopentyl]methyl sulfamate], the IC50 was 10 to 100 nM. For the same molecule, where the note is “Concentration 0.111 μM”, the inhibition at 0.111 µM came to 82%.
Consider `CCc1ccccc1OCc1csc(C(=O)c2cncnc2N[C@@H]2C[C@H](COS(N)(=O)=O)[C@@H](O)C2)c1` [I-182, [(1R,2S,4R)-4-{[5-({4-[(2-ethylphenoxy)methyl]-2-thienyl}carbonyl)pyrimidin-4-yl]amino}-2-hydroxycyclopentyl]methyl sulfamate], for which the IC50 lay within 10 to 100 nM. Besides, the inhibition at 0.111 µM (Concentration 0.111 μM) turned out to be 82%.
Turning to `COc1ccccc1CCc1csc(C(=O)c2cncnc2N[C@@H]2C[C@H](COS(N)(=O)=O)[C@@H](O)C2)c1` [I-183, [(1R,2S,4R)-2-Hydroxy-4-{[5-({4-[2-(2-methoxyphenyl)ethyl]-2-thienyl}carbonyl)pyrimidin-4-yl]amino}cyclopentyl]methyl sulfamate], the IC50 lay in the range of 10 to 100 nM. In addition, for the setting “Concentration 0.111 μM”, the inhibition at 0.111 µM was determined as 82%.
With `NS(=O)(=O)OC[C@H]1C[C@@H](Nc2ncncc2C(=O)c2cc(Cn3ccc4ccc(C(F)(F)F)cc43)cs2)C[C@@H]1O` [I-184, [(1R,2S,4R)-2-hydroxy-4-({5-[(4-{[6-(trifluoromethyl)-1H-indol-1-yl]methyl}-2-thienyl)carbonyl]pyrimidin-4-yl}amino)cyclopentyl]methyl sulfamate], the 50% inhibitory concentration (IC50) fell in the range of 10 to 100 nM. Besides, the inhibition at 0.111 µM (Concentration 0.111 μM) was 85%.
For `N#Cc1cccc(Cc2csc(C(=O)c3cncnc3N[C@@H]3C[C@H](COS(N)(=O)=O)[C@@H](O)C3)c2)c1` [I-185, {(1R,2S,4R)-4-[(5-{[4-(3-cyanobenzyl)-2-thienyl]carbonyl}pyrimidin-4-yl)amino]-2-hydroxycyclopentyl}methyl sulfamate], the IC50 lay within 10 to 100 nM. Moreover, the inhibition at 0.111 µM (Concentration 0.111 μM) is 80%.
The like results for `NS(=O)(=O)OC[C@H]1C[C@@H](Nc2ncncc2C(=O)c2cc(Cn3ccc4ccncc43)cs2)C[C@@H]1O` [I-186, {(1R,2S,4R)-2-hydroxy-4-[(5-{[4-(1H-pyrrolo[2,3-c]pyridin-1-ylmethyl)-2-thienyl]carbonyl}pyrimidin-4-yl)amino]cyclopentyl}methyl sulfamate] were, in that order, 10 to 100 nM and 83%.
Take `NS(=O)(=O)OC[C@H]1C[C@@H](Nc2ncncc2C(=O)c2cc(CN3Cc4ccccc4C3)cs2)C[C@@H]1O` [I-187, {(1R,2S,4R)-4-[(5-{[4-(1,3-dihydro-2H-isoindol-2-ylmethyl)-2-thienyl]carbonyl}pyrimidin-4-yl)amino]-2-hydroxycyclopentyl}methyl sulfamate]: the IC50 lay in the range of 10 to 100 nM. For the same molecule, the inhibition at 0.111 µM (Concentration 0.111 μM) came to 76%.
Turning to `NS(=O)(=O)OC[C@H]1C[C@@H](Nc2ncncc2C(=O)c2cc(COc3ccccc3C(F)(F)F)cs2)C[C@@H]1O` [I-188, [(1R,2S,4R)-2-hydroxy-4-({5-[(4-{[2-(trifluoromethyl)phenoxy]methyl}-2-thienyl)carbonyl]pyrimidin-4-yl}amino)cyclopentyl]methyl sulfamate], the IC50 was in the range of 10 to 100 nM. Also, the inhibition at 0.111 µM (Concentration 0.111 μM) worked out at 79%.
Regarding `NS(=O)(=O)OC[C@H]1C[C@@H](Nc2ncncc2C(=O)c2cc(Sc3cccc(C(F)(F)F)c3)c(Cl)s2)C[C@@H]1O` [I-189, [(1R,2S,4R)-4-({5-[(5-chloro-4-{[3-(trifluoromethyl)phenyl]sulfanyl}-2-thienyl)carbonyl]pyrimidin-4-yl}amino)-2-hydroxycyclopentyl]methyl sulfamate], the IC50 was in the range of 10 to 100 nM. Moreover, the inhibition at 0.111 µM (Concentration 0.111 μM) amounted to 78%.
The like results for `NS(=O)(=O)OC[C@H]1C[C@@H](Nc2ncncc2C(=O)c2cc(CN3CCn4ccnc4C3)cs2)C[C@@H]1O` [I-190, {(1R,2S,4R)-4-[(5-{[4-(5,6-dihydroimidazo[1,2-a]pyrazin-7(8H)-ylmethyl)-2-thienyl]carbonyl}pyrimidin-4-yl)amino]-2-hydroxycyclopentyl}methyl sulfamate] were, in that order, 10 to 100 nM and 77%.
For `CC(C)c1ccccc1OCc1csc(C(=O)c2cncnc2N[C@@H]2C[C@H](COS(N)(=O)=O)[C@@H](O)C2)c1` [I-191, [(1R,2S,4R)-2-hydroxy-4-{[5-({4-[(2-isopropylphenoxy)methyl]-2-thienyl}carbonyl)pyrimidin-4-yl]amino}cyclopentyl]methyl sulfamate], the IC50 lay in the range of 10 to 100 nM. The inhibition at 0.111 µM (Concentration 0.111 μM) was found to be 72%.
